This is an account of results in US5506340A, “Tumor necrosis factor inhibitors” (Centecor, Inc., priority 1994, dated 1996).

No end group written: not given here.

T1 sequence (P01375 77-233 limits assumed): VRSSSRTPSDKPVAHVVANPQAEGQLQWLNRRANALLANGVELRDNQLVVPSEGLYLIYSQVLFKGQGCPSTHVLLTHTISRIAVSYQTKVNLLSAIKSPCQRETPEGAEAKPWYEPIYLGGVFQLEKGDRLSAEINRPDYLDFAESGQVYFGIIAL

This assay has as its target T1, human TNFα (Homo sapiens, UniProt P01375).
T1 construct: purchased Biosource, Camarillo, Calif
The assay can be described thus: p55 receptor/IgG fusion protein binding assay (inhibition of TNFα capture by p55-Ig coated plate). The note with it: TNFα 25 ng/ml preincubated with peptide, read-out: IC50 (concentration necessary to inhibit TNFα by 50%), inhibition of binding of TNFα to p55TNFr-IgG chimeric construct. The procedure:
This assay was designed to identify peptides which bind to human TNFα and thereby prevent the capture of the TNFα by a microtiter plate coated with p55-Ig fusion protein. A constant concentration of human TNFα is preincubated with the test peptide and then incubated on the p55-Ig coated microtiter wells. Bound TNFα is detected using a specific antisera and an alkaline phosphatase-conjugated probe.
A 96-well, U-bottom polyvinylchloride microtiter plate was coated with 50 μl/well of p55-Ig fusion protein at 5 μg/ml in 0.01M sodium phosphate, 0.15M sodium chloride (PBS) by incubation overnight at 4° C. or 2 hours at 37° C. […] 29, 1993 which is incorporated herein by reference. The plate was washed three times with 0.05% Tween-20 in PBS, then blocked, by adding 150 μl/well of assay buffer (10 mM N-2-hydroxyethylpiperazine-N'-[…] (HEPES) pH 7.2, containing 0.1% porcine gelatin, 0.1% Tween-80, and 0.01% sodium azide) and continuing incubation for 1 hour at 37° C. or at 4° C. for 1-7 days.
Lyophilized peptides to be tested were weighed in tared 12×75 mm polystyrene tubes and reconstituted to a concentration of 1.2 mM with assay buffer. Each suspension was sonicated in a water bath for 1-5 minutes and vortexed 15-30 seconds to disperse large particles. Serial dilutions of each peptide suspension were prepared using assay buffer in a 96-well polystyrene microtiter plate. Additional wells received Fab fragment of the mouse/human monoclonal anti-human TNFα antibody cA2 (positive control) or assay buffer (negative control). […] The polystyrene dilution plate was then sealed and incubated 1 hour at room temperature on an orbital mixer set at moderate speed.
Following the sample preincubation, blocker was discarded from the p55-Ig coated plate and blotted dry. Aliquots (50 μl) of each peptide or control were transferred into duplicate wells on the p55-Ig coated plate which was then sealed and incubated 1 hour at 37° C. Duplicate wells containing only assay buffer were included as a plate blank. After incubation the p55-Ig plate was washed three times with 0.05% Tween-20 in PBS.
All incubations were for 1 hour at 37° C. and after each incubation the plate was washed three times with 0.05% Tween-20 in PBS. Fifty microliters of alkaline phosphatase substrate solution (alkaline buffer (Sigma, St. Louis, Mo.) diluted 1:500 in deionized water plus one 5 mg tablet of p-nitrophenyl phosphate (Sigma, St. Louis, Mo.) per 5 ml of diluted buffer) was added to all wells and incubation continued for 20 minutes at room temperature. Color development was stopped by adding to all wells 50 μl of 3N sodium hydroxide. The optical density (OD) at 405 nm was measured on a microtiter plate reader (Molecular Devices Vmax plate reader), with the plate blank wells subtracted as background. The activity of each peptide was then expressed as the percent inhibition of TNFα capture by the p55-Ig plate, relative to the amount of TNFα captured in wells containing only assay buffer (negative control), as follows:
The inhibition of binding of TNFα to p55TNFr-IgG chimeric construct was performed as described above using several embodiments of the invention. The peptides were tested to determine the concentration necessary to inhibit TNFα by 50% (IC50) relative to TNFα activity in the absence of the peptide.
On to MVYPGLQEPWLHSMY-NH2, for which the IC50 amounted to 850 µM.
For the substance PGLQEPWLHSMYHGA-NH2, the IC50 stood at 600 µM.
Under QEPWLHSMYHGAAFQ-NH2 stands 310 µM; under WLHSMYHGAAFQLTQ-NH2, 480 µM; under YLAHEVQLFSSQYPF-NH2, 370 µM.
